According to patent US20090069320A1, “Substituted 4-Amino-Quinazoline Compounds with Metabotropic Glutamate Receptor Regulating Activity and Uses Thereof” (Gruenenthal GmbH, priority 2006, published 2009):
Structures can show the parent of a compound that is named as a salt.

Target: T1, mGluR5 receptor (Sus scrofa, UniProt I3LUI7)
T1 construct: 450 μg of protein from brain homogenate with 5 nM ^3[H]-MPEP; from tissue; host or cells: pig brain halves without medulla, cerebellum and pons
Assay: [3H]-MPEP mGluR5 receptor binding assay (pig brain homogenate)
Conditions: 5 nM [3H]-MPEP; for inhibition at 10 µM / % Inhibition of mGluR5 Receptor (pig) [^3H]-MPEP Bond at 10 μM: 10 μM compound; for inhibition at 10 µM: read-out: % Inhibition of mGluR5 Receptor (pig) [^3H]-MPEP Bond at 10 μM; for IC50: read-out: IC50 mGluR5 Receptor (pig) [^3H]-MPEP Bond
In short: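 Compounds at 10 μM competed with 5 nM [3H]-MPEP for binding to pig brain membranes (450 μg protein) for 60 min at room temperature in pH 8.0 Hepes buffer. Bound radioactivity was collected on glass-fibre filters and read by β-counting, with 10 μM unlabelled MPEP giving non-specific binding.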

T1 sequence (I3LUI7 19-1212): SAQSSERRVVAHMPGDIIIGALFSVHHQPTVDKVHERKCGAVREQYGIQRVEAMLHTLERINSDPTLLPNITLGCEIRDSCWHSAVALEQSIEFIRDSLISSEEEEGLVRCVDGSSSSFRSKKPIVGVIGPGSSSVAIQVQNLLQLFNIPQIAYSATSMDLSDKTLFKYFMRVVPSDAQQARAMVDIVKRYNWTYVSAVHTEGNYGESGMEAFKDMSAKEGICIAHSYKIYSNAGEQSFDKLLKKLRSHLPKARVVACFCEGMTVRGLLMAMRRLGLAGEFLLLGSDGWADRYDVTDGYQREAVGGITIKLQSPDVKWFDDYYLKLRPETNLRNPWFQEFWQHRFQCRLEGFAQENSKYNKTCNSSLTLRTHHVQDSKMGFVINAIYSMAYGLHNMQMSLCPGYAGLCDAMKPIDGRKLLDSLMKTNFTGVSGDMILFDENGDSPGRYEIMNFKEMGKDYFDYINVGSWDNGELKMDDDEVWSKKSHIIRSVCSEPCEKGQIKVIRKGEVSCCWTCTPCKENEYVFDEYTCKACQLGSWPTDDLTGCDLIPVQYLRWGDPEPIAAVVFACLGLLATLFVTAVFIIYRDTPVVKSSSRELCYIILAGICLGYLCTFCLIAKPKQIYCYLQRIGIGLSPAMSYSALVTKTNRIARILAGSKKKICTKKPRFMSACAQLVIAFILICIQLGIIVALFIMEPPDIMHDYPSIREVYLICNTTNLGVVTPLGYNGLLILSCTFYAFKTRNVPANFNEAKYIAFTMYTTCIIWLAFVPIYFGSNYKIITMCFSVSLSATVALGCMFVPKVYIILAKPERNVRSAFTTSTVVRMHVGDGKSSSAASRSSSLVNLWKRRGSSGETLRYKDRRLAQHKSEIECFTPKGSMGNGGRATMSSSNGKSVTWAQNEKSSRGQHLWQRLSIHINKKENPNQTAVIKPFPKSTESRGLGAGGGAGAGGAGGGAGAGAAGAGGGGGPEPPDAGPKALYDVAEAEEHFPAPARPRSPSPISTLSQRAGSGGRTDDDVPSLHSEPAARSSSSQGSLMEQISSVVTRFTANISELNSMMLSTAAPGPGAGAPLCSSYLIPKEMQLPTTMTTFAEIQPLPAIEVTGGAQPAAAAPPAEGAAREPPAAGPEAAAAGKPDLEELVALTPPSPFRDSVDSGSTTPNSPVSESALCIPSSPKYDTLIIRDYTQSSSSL

Compound	inhibition at 10 µM [%]	other results
Cc1cc(C(=O)N(Cc2cccc(-c3cc(F)c4ncnc(NC5CC5)c4c3)c2)C2CC2)n(C)n1 [Example 760, N-cyclopropyl-N-(3-(4-(cyclopropylamino)-8-fluoroquinazolin-6-yl)benzyl)-1,3-dimethyl-1H-pyrazole-5-carboxamide]	93	
O=S(=O)(c1ccc(Cl)cc1Cl)N(Cc1cc(-c2ccc3ncnc(NC4CC4)c3c2)ccc1F)C1CC1 [Example 391, 2,4-dichloro-N-cyclopropyl-N-(5-(4-(cyclopropylamino)quinazolin-6-yl)-2-fluorobenzyl)benzole sulfonamide]		% Inhibition of mGluR5 Receptor (pig) [^3H]-MPEP Bond at 10 μM: 74%
CC(C)(C)Nc1ncnc2ccc(-c3ccc(F)c(CN(C4CC4)S(=O)(=O)c4ccc(Cl)cc4Cl)c3)cc12 [Example 857, N-(5-(4-(tert-butylamino)quinazolin-6-yl)-2-fluorobenzyl)-2,4-dichloro-N-cyclopropyl benzole sulfonamide]		% Inhibition of mGluR5 Receptor (pig) [^3H]-MPEP Bond at 10 μM: 36%
COc1ccc(S(=O)(=O)N(Cc2cc(-c3ccc4ncnc(NC5CC5)c4c3)ccn2)C2CC2)cc1 [Example 806, N-cyclopropyl-N-((4-(4-(cyclopropylamino)quinazolin-6-yl)pyridin-2-yl)methyl)-4-methoxybenzole sulfonamide]		% Inhibition of mGluR5 Receptor (pig) [^3H]-MPEP Bond at 10 μM: 89%
CCCN(Cc1cccc(-c2ccc3ncnc(Nc4ccccc4)c3c2)c1)C(=O)c1ccc(C(F)(F)F)cc1F [Example 93, 2-fluoro-N-[3-(4-phenylamino-quinazolin-6-yl)-benzyl]-N-propyl-4-trifluoromethyl-benzamide]	38	
O=C1CC(c2ccccc2)C(=O)N1Cc1cccc(-c2ccc3ncnc(NC4CC4)c3c2)c1 (stereo not shown) [Example 229, 1-[3-(4-cyclopropylamino-quinazolin-6-yl)-benzyl]-3-phenyl-pyrrolidine-2,5-dione; hydrochloride]		IC50: 3500 nM
CC(=O)N(Cc1cc(F)cc(-c2ccc3ncnc(NC4CC4)c3c2)c1)C1CC1 [Example 897, N-cyclopropyl-N-(3-(4-(cyclopropylamino)quinazolin-6-yl)-5-fluorobenzyl)acetamide]		IC50: 20 nM
CCCN(Cc1cccc(-c2ccc3ncnc(Nc4ccccc4)c3c2)c1)C(=O)c1ccc(OC)cc1 [Example 94, 4-methoxy-N-[3-(4-phenylamino-quinazolin-6-yl)-benzyl]-N-propyl-benzamide]	75	
COc1cc2ncnc(NC3CC3)c2cc1-c1cccc(CN2C(=O)CCC2=O)c1 [Example 899, 1-(3-(4-(cyclopropylamino)-7-methoxyquinazolin-6-yl)benzyl)pyrrolidine-2,5-dione]		IC50: 160 nM
CC(=O)N(Cc1cc(C)cc(-c2ccc3ncnc(NC4CC4)c3c2)c1)C1CC1 [Example 239, N-cyclopropyl-N-[3-(4-cyclopropylamino-quinazolin-6-yl)-5-methyl-benzyl]-acetamide]		IC50: 4120 nM
CC(=O)N(Cc1cccc(-c2ccc3ncnc(NC4CC4)c3c2)c1)C(C)=O [Example 879, N-acetyl-N-(3-(4-(cyclopropylamino)quinazolin-6-yl)benzyl)acetamide]		IC50: 1660 nM
CN(Cc1cccc(-c2ccc3ncnc(NC4CC4)c3c2)c1)S(C)(=O)=O [Example 223, N-(3-(4-(cyclopropylamino)quinazolin-6-yl)benzyl)-N-methyl methane sulfonamide]		% Inhibition of mGluR5 Receptor (pig) [^3H]-MPEP Bond at 10 μM: 51%
O=C(c1ccc(C(F)(F)F)cc1F)N(Cc1cc(-c2ccc3ncnc(NC4CC4)c3c2)ccc1Cl)C1CC1 [Example 800, N-(2-chloro-5-(4-(cyclopropylamino)quinazolin-6-yl)benzyl)-N-cyclopropyl-2-fluoro-4-(trifluoromethyl)benzamide]	91	
O=S(=O)(c1cccc(C(F)(F)F)c1)N(Cc1cc(-c2ccc3ncnc(NC4CC4)c3c2)ccn1)C1CC1 [Example 858, N-cyclopropyl-N-((4-(4-(cyclopropylamino)quinazolin-6-yl)pyridin-2-yl)methyl)-3-(trifluoromethyl)benzole sulfonamide]		% Inhibition of mGluR5 Receptor (pig) [^3H]-MPEP Bond at 10 μM: 85%
Cc1cc2ncnc(NC3CC3)c2cc1-c1cccc(CN(C2CC2)S(=O)(=O)C(C)C)c1 [Example 705, N-cyclopropyl-N-(3-(4-(cyclopropylamino)-7-methylquinazolin-6-yl)benzyl)propane-2-sulfonamide]	86	
O=S(=O)(c1ccccc1)N(Cc1cc(-c2ccc3ncnc(NC4CC4)c3c2)ccn1)C1CC1 [Example 731, N-cyclopropyl-N-((4-(4-(cyclopropylamino)quinazolin-6-yl)pyridin-2-yl)methyl)benzole sulfonamide]		% Inhibition of mGluR5 Receptor (pig) [^3H]-MPEP Bond at 10 μM: 86%
CNc1ncnc2ccc(-c3cccc(CN(c4ccccc4F)S(=O)(=O)c4ccccc4)c3)cc12 [Example 852, N-(2-fluorophenyl)-N-(3-(4-(methylamino)quinazolin-6-yl)benzyl)benzole sulfonamide]		% Inhibition of mGluR5 Receptor (pig) [^3H]-MPEP Bond at 10 μM: 49%
O=S(=O)(c1ccccc1)N(Cc1cccc(-c2ccc3ncnc(NC4CC4)c3c2)c1)C1CC1 [Example 227, N-cyclopropyl-N-(3-(4-(cyclopropylamino)quinazolin-6-yl)benzyl)benzole sulfonamide]		IC50: 2570 nM
Cc1cc(C(=O)N(Cc2cc(-c3ccc4nc(C)nc(NC5CC5)c4c3)ccc2F)C2CC2)n(C)n1 [Example 542, N-cyclopropyl-N-(5-(4-(cyclopropylamino)-2-methylquinazolin-6-yl)-2-fluorobenzyl)-1,3-dimethyl-1H-pyrazole-5-carboxamide]	33	
COCC(=O)N(Cc1cc(-c2ccc3ncnc(NC4CC4)c3c2)ccc1F)C1CC1 [Example 390, N-cyclopropyl-N-(5-(4-(cyclopropylamino)quinazolin-6-yl)-2-fluorobenzyl)-2-methoxyacetamide]		IC50: 70 nM
O=C(c1ccccc1C(F)(F)F)N(Cc1cc(-c2ccc3ncnc(NC4CC4)c3c2)ccc1Cl)C1CC1 [Example 740, N-(2-chloro-5-(4-(cyclopropylamino)quinazolin-6-yl)benzyl)-N-cyclopropyl-2-(trifluoromethyl)benzamide]	85	
c1cc(CN(c2nccs2)C2CC2)cc(-c2ccc3ncnc(NC4CC4)c3c2)c1 [Example 892, N-cyclopropyl-N-(3-(4-(cyclopropylamino)quinazolin-6-yl)benzyl)thiazole-2-amine]		IC50: 80 nM
O=C(c1ccno1)N(Cc1cc(-c2ccc3ncnc(NC4CC4)c3c2)ccc1Cl)C1CC1 [Example 762, N-(2-chloro-5-(4-(cyclopropylamino)quinazolin-6-yl)benzyl)-N-cyclopropyl isoxazole-5-carboxamide]		% Inhibition of mGluR5 Receptor (pig) [^3H]-MPEP Bond at 10 μM: 91%

Continued, in another order:

inhibition at 10 µM [%]	Compound	other results
98	O=C(c1ccccc1C(F)(F)F)N(Cc1cccc(-c2ccc3ncnc(NC4CC4)c3c2)c1)C1CC1 [Example 167, N-cyclopropyl-N-[3-(4-cyclopropylamino-quinazolin-6-yl)-benzyl]-2-trifluoromethyl-benzamide]	
56	CN(Cc1cccc(-c2ccc3ncnc(NC4CC4)c3c2)c1)c1ccccn1 [Example 878, N-cyclopropyl-6-(3-((methyl(pyridin-2-yl)amino)methyl)phenyl)quinazoline-4-amine]	
77	O=C(c1cccc(C(F)(F)F)c1)N(Cc1cc(-c2ccc3ncnc(NC4CC4)c3c2)ccc1F)C1CC1 [Example 405, N-cyclopropyl-N-(5-(4-(cyclopropylamino)quinazolin-6-yl)-2-fluorobenzyl)-3-(trifluoromethyl)benzamide]	
32	COCCN(Cc1cccc(-c2ccc3ncnc(NC4CC4)c3c2)c1)C(C)=O [Example 213, N-(3-(4-(cyclopropylamino)quinazolin-6-yl)benzyl)-N-(2-methoxyethyl)acetamide]	
58	COC(=O)CN(Cc1cccc(-c2ccc3ncnc(NC4CC4)c3c2)c1)C(=O)CC#N [Example 190, methyl 2-(2-cyano-N-(3-(4-(cyclopropylamino)quinazolin-6-yl)benzyl)acetamido)acetate]	
65	NC1(C(=O)NCc2cccc(-c3ccc4ncnc(NC5CC5)c4c3)c2)CC1 [Example 869, 1-amino-N-(3-(4-(cyclopropylamino)quinazolin-6-yl)benzyl)cyclopropane carboxamide dihydrochloride]	
87	O=C(CCc1ccccc1)N(Cc1cccc(-c2cc(F)c3ncnc(NC4CC4)c3c2)c1)C1CC1 [Example 703, N-cyclopropyl-N-(3-(4-(cyclopropylamino)-8-fluoroquinazolin-6-yl)benzyl)-3-phenylpropanamide]	
34	CC(C)S(=O)(=O)N(Cc1cccc(-c2ccc3ncnc(NCCc4ccccc4)c3c2)c1)C1CC1 [Example 818, N-cyclopropyl-N-(3-(4-(phenethylamino)quinazolin-6-yl)benzyl)propane-2-sulfonamide]	
93	O=C(c1cccc(F)c1)N(Cc1cccc(-c2cc(F)c3ncnc(NC4CC4)c3c2)c1)C1CC1 [Example 727, N-cyclopropyl-N-(3-(4-(cyclopropylamino)-8-fluoroquinazolin-6-yl)benzyl)-3-fluorobenzamide]	
97	O=C(Cc1ccccn1)N(Cc1cccc(-c2ccc3ncnc(NC4CC4)c3c2)c1)C1CC1 [Example 174, N-cyclopropyl-N-[3-(4-cyclopropylamino-quinazolin-6-yl)-benzyl]-2-pyridin-2-yl-acetamide]	
50	N#CCC(=O)N(Cc1cccc(-c2ccc3ncnc(N4CCCC4)c3c2)c1)C1CC1 [Example 133, 2-cyano-N-cyclopropyl-N-[3-(4-pyrrolidin-1-yl-quinazolin-6-yl)-benzyl]-acetamide]	
